Measured values reported in ChEMBL document CHEMBL1201862, “PubChem BioAssay data set” (2004).
Activity calls are given as the source filed them.

Experiments:
[1] = target: Broad substrate specificity ATP-binding cassette transporter ABCG2 (Homo sapiens, UniProt Q9UNQ0); assay: ABCG2 efflux pump inhibitors, dose response, Ig-MXP3 cells, flow cytometry (AID 1690); format: functional
[2] = inhibitors of intracellular T. cruzi replication, confirmation, NIH3T3 host cells, beta-gal luminescence (AID 2044); format: functional, cell-based;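 further: intracellular parasites grown in NIH/3T3 mouse fibroblasts as host cells; luminescent beta-galactosidase reporter signal from transgenic T. cruzi replicating inside host cells; inhibitors lower the luminescence signal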
Streptococcus = assay: Group A Streptococcus viability loss, dose response, counter-screen for streptokinase expression inhibitor project, luminescence, BacTiterGlo (AID 1915); format: functional, organism-based;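 further: potency for reduction of bacterial viability or growth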
[3] = target: T1, ATP-dependent translocase ABCB1 (Homo sapiens, UniProt P08183); assay: ABCB1 efflux pump inhibitor potency, dose response, Jurkat-DNR cells, JC-1, flow cytometry (AID 1689); format: functional
T1 sequence (P08183 whole entry): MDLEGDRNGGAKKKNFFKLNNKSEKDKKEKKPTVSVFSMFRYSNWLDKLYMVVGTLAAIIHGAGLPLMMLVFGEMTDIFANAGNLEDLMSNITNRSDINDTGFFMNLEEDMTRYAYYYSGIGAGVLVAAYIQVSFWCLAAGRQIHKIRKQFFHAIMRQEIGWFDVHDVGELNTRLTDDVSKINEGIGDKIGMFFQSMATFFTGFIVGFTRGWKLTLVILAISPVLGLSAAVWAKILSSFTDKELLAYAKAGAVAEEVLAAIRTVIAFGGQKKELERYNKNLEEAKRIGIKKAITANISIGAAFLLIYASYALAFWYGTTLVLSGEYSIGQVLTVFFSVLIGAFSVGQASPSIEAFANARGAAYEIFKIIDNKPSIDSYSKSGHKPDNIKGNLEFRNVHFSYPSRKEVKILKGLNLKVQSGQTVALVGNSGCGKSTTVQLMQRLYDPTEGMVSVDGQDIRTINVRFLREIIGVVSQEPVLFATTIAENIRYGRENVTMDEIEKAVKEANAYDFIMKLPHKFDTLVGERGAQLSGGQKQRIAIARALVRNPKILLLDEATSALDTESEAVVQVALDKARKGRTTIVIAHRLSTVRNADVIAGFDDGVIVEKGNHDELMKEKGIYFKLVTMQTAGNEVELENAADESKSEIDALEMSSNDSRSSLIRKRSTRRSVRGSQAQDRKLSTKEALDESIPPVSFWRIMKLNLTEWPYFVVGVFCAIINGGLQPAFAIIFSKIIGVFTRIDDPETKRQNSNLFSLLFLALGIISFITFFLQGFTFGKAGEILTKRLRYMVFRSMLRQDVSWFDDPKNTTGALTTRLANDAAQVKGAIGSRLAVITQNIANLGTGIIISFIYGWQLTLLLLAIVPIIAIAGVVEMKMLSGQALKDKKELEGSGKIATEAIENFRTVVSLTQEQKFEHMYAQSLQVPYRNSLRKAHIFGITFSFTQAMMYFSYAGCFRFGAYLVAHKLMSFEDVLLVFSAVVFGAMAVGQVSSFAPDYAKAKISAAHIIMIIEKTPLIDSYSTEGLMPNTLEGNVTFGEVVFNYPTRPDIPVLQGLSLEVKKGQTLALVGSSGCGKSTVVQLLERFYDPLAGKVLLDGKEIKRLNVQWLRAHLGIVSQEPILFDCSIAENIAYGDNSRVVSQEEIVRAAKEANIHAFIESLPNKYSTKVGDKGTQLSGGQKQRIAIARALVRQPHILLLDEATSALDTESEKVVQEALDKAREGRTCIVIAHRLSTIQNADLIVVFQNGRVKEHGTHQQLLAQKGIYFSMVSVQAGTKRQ

[4] = test system: Streptococcus sp. 'group A'; assay: growth inhibition of control SK(-) GAS strain, dose response, counter-screen for streptokinase expression inhibitor project, luminescence, kanamycin, BacTiterGlo, confirmation (AID 1900); format: functional, organism-based
Streptokinase A = target: T2, Streptokinase A (Streptococcus pyogenes serotype M1, UniProt P10520); assay: S. pyogenes streptokinase expression inhibitors, potency, dose response, plasminogen activation absorbance, OD405 (AID 1914); format: functional, Streptococcus pyogenes M1 GAS;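 further: secreted streptokinase activity via plasminogen activation per viability signal from cell pellet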
T2 sequence (P10520 whole entry): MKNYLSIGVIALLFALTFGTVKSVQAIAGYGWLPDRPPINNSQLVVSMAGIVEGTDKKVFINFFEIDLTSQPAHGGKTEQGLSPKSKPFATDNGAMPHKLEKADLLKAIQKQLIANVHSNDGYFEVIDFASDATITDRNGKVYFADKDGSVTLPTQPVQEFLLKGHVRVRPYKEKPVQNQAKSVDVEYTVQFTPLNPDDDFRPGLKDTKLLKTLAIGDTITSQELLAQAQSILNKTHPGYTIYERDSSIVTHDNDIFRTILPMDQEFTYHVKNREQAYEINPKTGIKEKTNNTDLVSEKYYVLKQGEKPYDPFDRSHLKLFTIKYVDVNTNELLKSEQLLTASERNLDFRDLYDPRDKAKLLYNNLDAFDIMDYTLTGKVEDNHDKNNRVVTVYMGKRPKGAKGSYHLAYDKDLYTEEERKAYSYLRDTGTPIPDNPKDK

[5] = cytotoxicity toward NIH3T3 fibroblasts, dose response, counter-screen, cell-based, ATP luminescence, mouse fibroblasts (AID 2010); format: functional;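 further: cells exposed to compound for about 90 hours before reading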
[6] = target: Arf-GAP with SH3 domain, ANK repeat and PH domain-containing protein 1 (Homo sapiens, UniProt Q9ULH1); format: functional;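 further: biochemical fluorescence polarization dose–response screen measuring inhibition of ASAP1; ASAP1 GAP domain stimulating GTP hydrolysis by truncated human ARF1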
Arf-GAP with SH3 domain, ANK repeat and PH domain-containing protein 1, sequence (Q9ULH1 whole entry, the tested form may be a part): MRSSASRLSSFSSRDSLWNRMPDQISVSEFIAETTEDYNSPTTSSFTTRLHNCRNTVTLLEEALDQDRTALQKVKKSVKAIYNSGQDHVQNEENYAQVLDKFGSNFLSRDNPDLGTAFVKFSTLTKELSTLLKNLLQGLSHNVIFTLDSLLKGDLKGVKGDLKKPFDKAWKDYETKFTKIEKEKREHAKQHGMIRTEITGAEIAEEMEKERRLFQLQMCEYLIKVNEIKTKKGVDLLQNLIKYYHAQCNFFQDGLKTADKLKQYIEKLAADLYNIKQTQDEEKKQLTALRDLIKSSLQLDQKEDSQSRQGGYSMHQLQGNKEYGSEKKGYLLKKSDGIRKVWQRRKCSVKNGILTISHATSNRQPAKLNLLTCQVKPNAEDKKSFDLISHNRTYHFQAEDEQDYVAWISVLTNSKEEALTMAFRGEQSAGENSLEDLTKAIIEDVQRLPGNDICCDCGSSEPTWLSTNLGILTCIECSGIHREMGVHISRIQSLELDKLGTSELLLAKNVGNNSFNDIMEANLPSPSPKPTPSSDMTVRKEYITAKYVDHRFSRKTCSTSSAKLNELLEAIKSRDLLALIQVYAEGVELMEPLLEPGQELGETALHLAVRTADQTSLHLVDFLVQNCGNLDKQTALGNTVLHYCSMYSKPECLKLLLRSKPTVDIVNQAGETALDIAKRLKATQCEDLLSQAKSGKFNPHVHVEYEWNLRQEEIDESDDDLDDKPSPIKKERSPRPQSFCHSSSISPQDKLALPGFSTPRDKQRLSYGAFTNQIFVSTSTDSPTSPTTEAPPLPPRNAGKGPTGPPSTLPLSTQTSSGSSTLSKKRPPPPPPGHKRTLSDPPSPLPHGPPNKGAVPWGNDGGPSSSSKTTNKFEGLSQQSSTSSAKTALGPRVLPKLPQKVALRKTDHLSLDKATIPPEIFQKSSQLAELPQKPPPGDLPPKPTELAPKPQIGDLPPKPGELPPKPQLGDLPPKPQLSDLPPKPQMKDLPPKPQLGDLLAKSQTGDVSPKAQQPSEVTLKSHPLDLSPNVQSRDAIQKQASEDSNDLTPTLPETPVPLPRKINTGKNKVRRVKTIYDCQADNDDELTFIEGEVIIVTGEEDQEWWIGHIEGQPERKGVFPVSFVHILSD

Estrogen receptor = target: T3, Estrogen receptor (Homo sapiens, UniProt P03372);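 further: potency for inhibiting coactivator peptide recruitment to the receptor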
T3 sequence (P03372 whole entry): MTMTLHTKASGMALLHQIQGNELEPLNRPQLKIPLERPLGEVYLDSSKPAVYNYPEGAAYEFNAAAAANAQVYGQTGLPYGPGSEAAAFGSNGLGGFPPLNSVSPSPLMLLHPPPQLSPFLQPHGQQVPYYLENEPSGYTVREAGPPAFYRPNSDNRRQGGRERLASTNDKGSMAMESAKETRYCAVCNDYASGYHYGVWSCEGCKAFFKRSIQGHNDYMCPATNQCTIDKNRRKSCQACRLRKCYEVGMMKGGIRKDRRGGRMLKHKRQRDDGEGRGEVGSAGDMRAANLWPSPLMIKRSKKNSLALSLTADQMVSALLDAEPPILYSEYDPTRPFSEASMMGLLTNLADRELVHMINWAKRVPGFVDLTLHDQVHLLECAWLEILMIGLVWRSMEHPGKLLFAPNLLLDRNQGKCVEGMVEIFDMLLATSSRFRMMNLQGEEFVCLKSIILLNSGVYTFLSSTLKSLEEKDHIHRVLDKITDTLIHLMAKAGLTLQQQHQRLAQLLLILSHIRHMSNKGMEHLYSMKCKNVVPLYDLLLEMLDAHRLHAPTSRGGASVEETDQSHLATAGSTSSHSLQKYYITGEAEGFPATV

[7] = target: T1, ATP-dependent translocase ABCB1; assay: ABCB1 efflux inhibitor potency, dose response, Jurkat-DNR cells, JC-1, flow cytometry, set 2 (AID 504569); format: functional; settings: read-out: EC50_MICROM_;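 further: potency of pump inhibitors that raise cellular JC-1 green fluorescence up to the nicardipine level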
[8] = target: T1, ATP-dependent translocase ABCB1; assay: ABCG2 efflux pump inhibitor potency, dose response, Ig-MXP3 cells, JC-1, flow cytometry, set 2 (AID 504566); format: functional; settings: read-out: EC50_MICROM_;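 further: flow cytometry median green fluorescence of retained JC-1 dye; potency of efflux pump inhibition measured as rising substrate retention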
[9] = cytotoxicity in OVCAR8 ovarian cancer cells, dose response, PAX8 project, cell-based, plate reader, dry powder samples (AID 743197); format: functional; settings: OVCAR-8
Paired box protein Pax-8 = Paired box protein Pax-8 (Homo sapiens, UniProt Q06710); assay: inhibitors of PAX8-driven TPO luciferase reporter, dose response, RMG-I cells, cherry-pick (AID 687027); format: functional, cell-based;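 further: luciferase reporter driven by Pax8 target thyroperoxidase promoter measured by SteadyGlo luminescence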
Paired box protein Pax-8, sequence (Q06710 whole entry): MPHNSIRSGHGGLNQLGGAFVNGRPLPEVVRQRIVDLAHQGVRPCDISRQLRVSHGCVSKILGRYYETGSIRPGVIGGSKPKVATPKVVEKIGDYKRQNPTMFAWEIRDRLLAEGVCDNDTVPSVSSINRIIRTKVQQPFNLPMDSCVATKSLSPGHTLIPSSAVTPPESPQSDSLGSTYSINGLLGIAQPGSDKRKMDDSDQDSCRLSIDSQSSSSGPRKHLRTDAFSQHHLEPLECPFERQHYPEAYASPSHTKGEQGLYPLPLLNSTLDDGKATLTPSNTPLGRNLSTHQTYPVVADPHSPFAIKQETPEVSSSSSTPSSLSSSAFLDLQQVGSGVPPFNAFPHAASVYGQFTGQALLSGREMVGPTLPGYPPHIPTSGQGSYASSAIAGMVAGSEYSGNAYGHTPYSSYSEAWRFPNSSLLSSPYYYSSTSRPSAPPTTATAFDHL

[10] = inhibitors of TNFa-stimulated NF-kB luciferase reporter, dose response, selectivity assay for EBV LMP1 NF-kB inhibitor project, HEK293 LMP1 reporter cells, dry powder, set 2 (AID 624369); format: functional
[11] = NIH:OVCAR-3 ovarian cancer cell cytotoxicity, dose response, PAX8 inhibitor project, plate reader, dry powder samples (AID 743044); format: functional, cell-based
[12] = target: Eukaryotic translation initiation factor 4E (Mus musculus, UniProt P63073); assay: eIF4E–eIF4G protein interaction inhibitors, dose response, biochemical, TR-FRET (AID 855); format: functional;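 further: potency for disrupting eIF4E binding to eIF4GI seen as loss of FRET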
Eukaryotic translation initiation factor 4E, sequence (P63073 whole entry): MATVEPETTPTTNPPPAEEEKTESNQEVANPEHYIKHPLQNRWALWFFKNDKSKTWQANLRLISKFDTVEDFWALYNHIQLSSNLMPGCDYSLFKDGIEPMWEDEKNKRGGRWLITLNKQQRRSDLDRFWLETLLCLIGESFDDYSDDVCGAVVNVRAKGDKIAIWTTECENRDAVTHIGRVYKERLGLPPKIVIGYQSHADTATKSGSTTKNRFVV

[13] = Counterscreen for […] of the human trace amine associated receptor 1 (TAAR1): Fluorescence-based cell-based high throughput dose response assay to identify nonselective Ga16 agonists.; format: functional
[14] = Counterscreen for antagonists of the human trace amine associated receptor 1 (hTAAR1): Fluorescence-based cell-based high throughput dose response assay to identify nonselective Ga16 antagonists.; format: functional

Broad substrate specificity ATP-binding cassette transporter ABCG2, sequence (Q9UNQ0 whole entry): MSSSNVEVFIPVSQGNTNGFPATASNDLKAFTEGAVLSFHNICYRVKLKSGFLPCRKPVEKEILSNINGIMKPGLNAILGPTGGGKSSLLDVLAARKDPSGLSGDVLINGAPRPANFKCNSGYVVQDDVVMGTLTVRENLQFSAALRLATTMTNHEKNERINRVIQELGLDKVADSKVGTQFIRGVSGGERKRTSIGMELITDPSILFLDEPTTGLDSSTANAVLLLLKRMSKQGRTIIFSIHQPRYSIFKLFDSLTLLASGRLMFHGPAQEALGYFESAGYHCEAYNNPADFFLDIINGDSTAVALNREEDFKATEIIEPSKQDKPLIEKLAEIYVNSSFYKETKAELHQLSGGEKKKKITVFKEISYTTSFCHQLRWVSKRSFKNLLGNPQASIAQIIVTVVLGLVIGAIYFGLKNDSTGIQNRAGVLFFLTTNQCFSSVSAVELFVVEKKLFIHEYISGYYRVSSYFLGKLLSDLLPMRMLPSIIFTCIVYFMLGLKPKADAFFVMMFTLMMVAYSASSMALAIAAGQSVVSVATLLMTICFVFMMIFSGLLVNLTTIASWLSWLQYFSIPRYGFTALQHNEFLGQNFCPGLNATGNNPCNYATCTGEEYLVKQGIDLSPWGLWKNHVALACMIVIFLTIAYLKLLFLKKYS

COc1ccc(-c2nn(-c3ccccc3)cc2/C=C/C(=O)N2CCN(c3ccccn3)CC2)cc1
EC50 [1]: 0.41 µM (active) | EC50 [2]: 2.34 µM (active) | EC50 (Streptococcus): 39.3 µM (active) | EC50 [3]: 1.64 µM (active) | EC50 [4]: 3.86 µM (active) | EC50 (Streptokinase A): > 150 µM (not active) | EC50 [5]: > 60 µM (not active)

COc1ccc2c(c1)CC/C(=C\c1ccc(OC)c(Cn3nc(C)cc3C)c1)C2=O
IC50 [6]: 26.8 µM (inactive) | IC50 (Estrogen receptor): > 50 µM (not active)

COc1ccc(-c2cc3nc(C)cc(N4CCN(C(=O)c5cccnc5)CC4)n3n2)cc1
EC50 [7]: 19 µM (inactive) | EC50 [8]: 10.7 µM (active)

COc1ccccc1C#Cc1ccc2c(c1)O[C@H](CN(C)Cc1cccnc1)[C@H](C)CN([C@@H](C)CO)S2(=O)=O
AC50 [9]: 32.2 µM (active) | AC50 (Paired box protein Pax-8): 7.51 µM (active) | AbsAC35 [10]: 38.33 µM | AC50 [11]: 21.4 µM (active)

Cc1ccc(-n2c(C)cc(/C=N/Nc3ccc([N+](=O)[O-])cn3)c2C)cc1
IC50 [12]: > 64 µM (inactive) | EC50 [13]: > 29.9 µM (inactive) | IC50 [14]: > 29.9 µM (inactive)
